Literature values, collected in US8530651B2, “Process for the preparation of anagrelide and analogues” (Shire LLC, priority 2008, dated 2013).
Read-outs that look alike come from different tables or passages of the source.

Columns and labels:
[1] = solid
[2] = humans; radiolabeled base
[3] = monkeys; radiolabeled base

SMILES: O=C1CN2Cc3c(ccc(Cl)c3Cl)N=C2N1 [anagrelide base, 6,7-dichloro-1,5-dihydroimidazo[2,1-b]quinazolin-2 (3H)-one]
- aqueous solubility [1]: low aqueous solubility
- absorption into blood plasma [2]: complete absorption
- absorption into blood plasma [3]: complete absorption
